Assay [1] relates to PC-3. Description: Concentration which produces 50% inhibition of growth of prostate tumor cell line PC-3. It is filed as functional, cell-based. Conditions: Homo sapiens; call rule not given here.
The subject of assay [2] is A549. In words: Concentration which produces 50% inhibition of growth of human lung carcinoma cell line A549. It is filed as functional, cell-based.
Assay [3] deals with B16. Description: Concentration which produces 50% inhibition of growth of murine melanoma B16 cell line. Conditions: Mus musculus. The format is functional, cell-based.
In assay [4] the test system is HCT-116. In words: Concentration which produces 50% inhibition of growth of human colon tumor HCT 116. The format is functional, cell-based.
The test system of assay [5] is MCF7. Description: Concentration which produces 50% inhibition of growth of human breast tumor MCF-7 cell line. The format is functional, cell-based.
Assay [6] has as its system A549. Description: Compound was tested for inhibition of growth of human lung carcinoma cell line A549 up to a conc of 10 uM; NI means no inhibition. The format is functional, cell-based.
Assay [7] has as its system MCF7. Description: Compound was tested for inhibition of growth of human breast tumor MCF-7 cell line up to a conc of 10 uM; NI means no inhibition. It is filed as functional, cell-based.
The test system of assay [8] is PC-3. In words: Compound was tested for inhibition of growth of prostate tumor cell line PC-3 up to a conc of 10 uM; NI means no inhibition. It is filed as functional, cell-based, Homo sapiens.
The test system of assay [9] is HCT-116. In words: Compound was tested for inhibition of growth of human colon tumor HCT116 up to a conc of 10 uM; NI means no inhibition. It is filed as functional, cell-based.
The test system of assay [10] is B16. Description: In vivo antitumor activity against BDF1 mice bearing B16 murine melanoma cells at a dose of 100 mg/kg/day. The format is functional, Mus musculus.
Assay [11] relates to B16. In words: In vivo antitumor activity against BDF1 mice bearing B16 murine melanoma cells at a dose of 30 mg/kg/day. The format is functional, Mus musculus.
Assay [12] deals with B16. Description: In vivo antitumor activity against BDF1 mice bearing B16 murine melanoma cells at a dose of 10 mg/kg/day. It is filed as functional, Mus musculus.
Assay [13] deals with B16. Description: In vivo antitumor activity against BDF1 mice bearing B16 murine melanoma cells at a dose of 3 mg/kg/day. The format is functional, Mus musculus.

pIC50: −log10 of the molar value.

As usually defined, the pIC50 is −log10 of the IC50, conventionally taken in molar units. Low readings indicate a large IC50, high ones a small IC50. Take `COc1ccc(-c2oc(O)nc2-c2cc(OC)c(OC)c(OC)c2)cc1`: the pIC50 was 7.70 in [1]; 7.77 in [2]; 7.84 in [3]; 7.66 in [4]; 7.55 in assay [5].

For `COc1ccc(/C=C\c2cc(OC)c(OC)c(OC)c2)cc1O` [COMBRETASTATIN A4], the pIC50 in [1] was 8.57; in assay [2], 8.68; in assay [3], 9.00; in assay [4], 9.05; in [5], 8.57.

In the case of `COc1ccc(-c2coc(=O)n2-c2cc(OC)c(OC)c(OC)c2)cc1`, the pIC50 in [1] was 8.12; in [2] it was 7.70; in assay [3] it was 8.10; in assay [4], 7.96; in assay [5] it was 7.98.

On to `COc1ccc(-n2c(-c3cc(OC)c(OC)c(OC)c3)coc2=O)cc1`, for which the IC50 result in [6], in assay [7], in [8] and in [9] was “Not Active” throughout. In assay [3], this compound gave a pIC50 of 5.73.

`COc1cc(-c2nc(O)oc2-c2ccc3c(c2)OCO3)cc(OC)c1OC`: the pIC50 in assay [1] is 6.95; in assay [2], 7.20; in [3], 7.05; in assay [4], 7.00; in assay [5], 7.11.

On to `COc1ccc(-c2coc(=O)n2-c2cc(OC)c(OC)c(OC)c2)cc1N`, for which the results for the Inhibition rate in assay [10], in assay [11] and in assay [12] were 67%, 61% and 34%, respectively. In addition, the pIC50 in [1] is 8.60; in [2], 8.37; in [3], 8.96; in assay [4] it was 8.49; in [5], 8.74.

`COc1ccc(-c2oc(O)nc2-c2cc(OC)c(OC)c(OC)c2)cc1O`: the pIC50 was 8.19 in assay [1]; 8.10 in assay [2]; 8.27 in [3]; 8.21 in assay [4]; 8.24 in [5].

Consider `COc1cc(-n2c(-c3ccc4c(c3)OCO4)coc2=O)cc(OC)c1OC`, for which the pIC50 in assay [1] is 7.15; in assay [2] it was 7.19; in assay [3], 7.35; in assay [4] it was 7.24; in [5] it was 7.40.

Consider `COc1cc(-n2c(-c3ccc4ccccc4c3)coc2=O)cc(OC)c1OC`, for which the pIC50 in assay [1] is 8.51; in assay [2], 8.23; in [3], 8.24; in assay [4], 8.31; in assay [5] it was 8.43.

In the case of `COc1cccc2c1C(=O)c1c(O)c3c(c(O)c1C2=O)C[C@@](O)(C(=O)CO)C[C@@H]3O[C@H]1C[C@H](N)[C@H](O)[C@H](C)O1` [DOXORUBICIN], the Inhibition rate in assay [13] amounted to 55%.

On to `COc1ccc(-c2coc(=O)n2-c2cc(OC)c(OC)c(OC)c2)cc1O`, for which the pIC50 was 8.64 in assay [1]; 8.51 in assay [2]; 9.05 in assay [3]; 8.77 in assay [4]; 8.54 in [5].

For `COc1ccc(-c2oc(O)nc2-c2cc(OC)c(OC)c(OC)c2)cc1N`, the pIC50 in assay [1] is 8.68; in [2], 8.42; in assay [3], 8.62; in assay [4], 8.43; in [5] it was 8.31.

For the compound `COc1cc(-c2nc(O)oc2-c2ccc3ccccc3c2)cc(OC)c1OC`, the pIC50 in assay [1] was 8.15; in assay [2] it was 7.97; in [3], 8.13; in assay [4] it was 7.95; in assay [5] it was 7.78.

As to `COc1ccc(-c2nc(O)oc2-c2cc(OC)c(OC)c(OC)c2)cc1`, the IC50 result in assay [6], in assay [7], in assay [8] and in assay [9] was “Not Active” each time. The compound also gave a pIC50 in assay [3] of 5.86.

These data come from ChEMBL document CHEMBL1134428, “Combretoxazolones: synthesis, cytotoxicity and antitumor activity” (Bioorg Med Chem Lett, 2001).
